# Results taken from patent US8653275B2, “Bis-quaternary ammonium cyclophane compounds that interact with neuronal nicotinic acetylcholine receptors” (University of Kentucky Research Foundation, priority 2006, dated 2014).
# pKi: −log10 of the molar value.
# Key:
# [1] = target: T1, Rat striatal nicotinic receptors ([3H]nicotine binding) (Rattus norvegicus, UniProt P09483+P12390); assay: Inhibition of [3H]nicotine binding; conditions: 3 nM [3H]nicotine; for Inhibition of [3H]Nicotine binding: % inhibition at 100 nM analog, nonspecific binding with 10 μM cytisine
# T1 construct: Whole brain, excluding cortex and cerebellum, was homogenized; from tissue; host or cells: rat brain membranes (whole brain excluding cortex and cerebellum)
# T1 sequence (P09483 31-630): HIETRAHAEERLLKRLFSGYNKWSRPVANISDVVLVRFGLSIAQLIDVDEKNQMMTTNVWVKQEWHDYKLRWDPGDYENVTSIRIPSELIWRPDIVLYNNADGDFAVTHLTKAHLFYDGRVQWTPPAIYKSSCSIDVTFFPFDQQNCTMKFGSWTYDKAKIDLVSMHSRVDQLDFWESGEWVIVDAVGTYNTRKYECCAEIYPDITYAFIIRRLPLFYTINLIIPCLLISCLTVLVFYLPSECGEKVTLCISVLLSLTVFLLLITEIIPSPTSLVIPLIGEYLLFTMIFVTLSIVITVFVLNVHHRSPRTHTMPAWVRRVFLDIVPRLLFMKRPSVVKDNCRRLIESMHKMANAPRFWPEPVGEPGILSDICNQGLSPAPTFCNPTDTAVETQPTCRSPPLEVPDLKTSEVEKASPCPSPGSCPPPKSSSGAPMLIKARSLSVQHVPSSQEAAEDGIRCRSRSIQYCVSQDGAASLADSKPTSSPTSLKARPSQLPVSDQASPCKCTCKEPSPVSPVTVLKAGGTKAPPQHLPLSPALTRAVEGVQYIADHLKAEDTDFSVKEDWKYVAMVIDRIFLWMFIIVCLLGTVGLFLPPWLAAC
# T1 sequence (P12390 25-500): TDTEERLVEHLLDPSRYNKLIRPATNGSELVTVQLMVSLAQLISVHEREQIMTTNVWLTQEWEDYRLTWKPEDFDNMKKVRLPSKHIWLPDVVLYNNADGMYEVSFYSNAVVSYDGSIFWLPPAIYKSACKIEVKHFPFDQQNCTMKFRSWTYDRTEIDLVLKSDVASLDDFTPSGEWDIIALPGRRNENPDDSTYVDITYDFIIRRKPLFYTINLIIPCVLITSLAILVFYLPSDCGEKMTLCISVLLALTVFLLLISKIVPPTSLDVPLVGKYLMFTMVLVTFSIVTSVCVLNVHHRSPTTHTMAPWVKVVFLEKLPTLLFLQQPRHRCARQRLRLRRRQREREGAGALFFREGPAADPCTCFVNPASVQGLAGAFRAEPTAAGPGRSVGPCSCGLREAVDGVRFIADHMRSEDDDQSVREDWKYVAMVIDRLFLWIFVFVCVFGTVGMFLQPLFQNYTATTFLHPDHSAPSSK
# Description: (§1) Whole brain, excluding cortex and cerebellum, was homogenized in 20 vol of ice-cold buffer, containing (in mM): 2 HEPES, 11.8 NaCl, 0.48 KCl, 0.25 CaCl2 and 0.12 MgSO4, pH 7.5. Homogenate was centrifuged (25,000 g, 15 min, 4° C.). Pellets were resuspended in 20 vol buffer and incubated at 37° C., for 10 min, cooled to 4° C. and centrifuged (25,000 g, 15 min, 4° C.). Pellets were resuspended and centrifuged using the same conditions. Final pellets were stored in assay buffer, containing (in mM): 20 HEPES, 118 NaCl, 4.8 KCl, 2.5 CaCl2, and 1.2 MgSO4, pH 7.5 at −70° C. Upon use, final pellets were resuspended in ˜20 vol assay buffer. Samples (250 μl) contained 100-140 μg of membrane protein, 3 nM [^3H]nicotine or 3 nM [^3H]methyllycaconitine (MLA), and bis-quaternary ammonium cyclophane analog (100 nM) in assay buffer containing 50 mM Tris. Control was in the absence of analog. In [^3H]nicotine and [^3H]methyllycaconitine binding assays, nonspecific binding was determined in the presence of 10 μM cytisine and 10 μM nicotine, respectively. Incubations proceeded for 60 min at room temperature using 96-well plates and were terminated by harvesting on Unifilter-96 GF/B filter plates presoaked in 0.5% polyethylenimine, using a Packard FilterMate harvester. After washing 5 times with 350 μl ice-cold assay buffer, filter plates were dried (60 min, 4° C.), bottom-sealed, and filled with Packard's MicroScint 20 cocktail (40 μl/well). After 60 min, filter plates were top-sealed, and radioactivity determined using a Packard TopCount. Protein concentrations were determined using the Bradford dye-binding procedure bovine serum albumin as the standard.
# [2] = target: T2, Rat striatal nicotinic receptors ([3H]MLA binding) (Rattus norvegicus, UniProt Q05941); assay: Inhibition of [3H]methyllycaconitine (MLA) binding; conditions: for Inhibition of [3H]MLA Binding: % inhibition at 100 nM analog, 2.5 nM [3H]MLA, nonspecific binding with 1 μM nicotine (footnote b)
# T2 construct: Whole brain, excluding cortex and cerebellum, was homogenized; from tissue; host or cells: rat brain membranes (whole brain excluding cortex and cerebellum)
# T2 sequence (Q05941 23-502): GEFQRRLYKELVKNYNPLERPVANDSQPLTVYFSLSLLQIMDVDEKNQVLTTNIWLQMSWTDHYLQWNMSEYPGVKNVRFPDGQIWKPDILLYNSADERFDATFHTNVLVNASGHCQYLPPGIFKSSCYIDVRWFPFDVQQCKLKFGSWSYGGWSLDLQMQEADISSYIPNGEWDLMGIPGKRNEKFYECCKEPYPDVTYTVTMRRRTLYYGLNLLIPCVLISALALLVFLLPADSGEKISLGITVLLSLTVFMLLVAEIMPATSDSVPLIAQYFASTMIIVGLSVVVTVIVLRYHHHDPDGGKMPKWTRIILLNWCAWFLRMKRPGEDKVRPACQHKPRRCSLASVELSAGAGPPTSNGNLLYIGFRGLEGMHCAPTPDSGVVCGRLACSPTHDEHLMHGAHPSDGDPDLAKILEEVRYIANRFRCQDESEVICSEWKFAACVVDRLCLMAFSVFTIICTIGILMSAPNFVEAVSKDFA
# Description: as §1, with “Samples (250 μl) contained 100-140 μg of membrane protein, 3 nM [^3H]nicotine or 3 nM [^3H]methyllycaconitine (MLA), and bis-quaternary ammonium cyclophane analog (100 nM) in assay buffer containing 50 mM Tris.” left out, “In [^3H]nicotine and [^3H]methyllycaconitine binding assays, nonspecific binding was determined in the presence of 10 μM cytisine and 10 μM nicotine, respectively.” left out
# [3] = tested on: nicotine-evoked [3H]DA release, rat striatal slices; assay: Inhibition of nicotine-evoked [3H]dopamine release from superfused rat striatal slices; assay type: cell-based; conditions: 100 nM analog superfused 60 min before nicotine (10 μM)
# Description: Rat striatal slices (500 μm thickness, 6-8 mg wet weight) were incubated for 30 minutes in Krebs buffer (118 mM NaCl, 4.7 mM KCl, 1.2 mM MgCl2, 1.0 mM NaH2PO4, 1.3 mM CaCl2, 11.1 mM glucose, 25 mM NaHCO3, 0.11 mM L-ascorbic acid, and 0.004 mM disodium EDTA; pH 7.4, and saturated with 95% O2/5% CO2) in a metabolic shaker at 34° C. Slices were rinsed with 15 mL of fresh buffer and incubated for an additional 30 minutes in fresh buffer containing 0.1 μM [^3H]dopamine (DA; 6 slices/3 mL). Subsequently, slices were rinsed with 15 mL of fresh buffer and transferred to a glass superfusion chamber. Slices were superfused (1.0 mL/min) for 60 minutes with Krebs buffer containing nomifensine (10 μM) and pargyline (10 μM) and maintained at 34° C., pH 7.4, with continual aeration (95% O2/5% CO2). Two five minute samples (5 mL each) were collected to determine basal outflow of [^3H]DA. The bis-quaternary ammonium cyclophane analogs were added to the superfusion buffer after the collection of the second sample and remained in the buffer until 12 consecutive five minute samples were collected. […] At the end of the experiment, each slice was solubilized and the [^3H] content of the tissue determined.
# Radioactivity in the superfusate and tissue samples was determined by liquid scintillation spectroscopy. Fractional release for tritium collected in each sample was divided by the total tritium present in the tissue at the time of sample collection and was expressed as a percentage of total tritium. Basal [^3H]outflow was calculated from the average of the tritium collected in the two five minute samples just before addition of the quaternary ammonium analog. […] [^3H]Overflow was calculated by subtracting the [^3H]outflow during an equivalent period of prestimulation from the values in samples collected during and after drug exposure. […]
# The bis-quaternary ammonium cyclophane analogs were also evaluated for their ability to inhibit nicotine evoked [^3H]DA release. […] Antagonist activity was evaluated by comparing the nicotine evoked [^3H]overflow in the absence and presence of the analogs. […]
# BBB choline transporter = assay: Affinity for the BBB choline transporter; assay type: binding
# [4] = full concentration effect evaluated
smiles,measurement,setting,value
"c1cc2c[n+](c1)CCCCCCCCCCCCc1ccc[n+](c1)CCCCCCCCCCCC2 [N,3′-(1,12-dodecanediyl)-3,N′-(1,12-dodecanediyl)-bis-pyridinium dibromide]",Inhibition of [3H]Nicotine binding,[1],2%
same,Inhibition of [3H]MLA Binding,[2],0%
same,Inhibition of Nicotine-evoked [3H]DA release,[3],20%
"c1cc2c[n+](c1)CCCC[n+]1cccc(c1)CCCCCCCCCCCC2 [N,N′-(1,4-butanediyl)-3,3′-(1,12-dodecanediyl)-bis-pyridinium diiodide]",Inhibition of [3H]Nicotine binding,[1],14 ± 2.6%
same,Inhibition of [3H]MLA Binding,[2],3.0 ± 3.0%
same,Inhibition of Nicotine-evoked [3H]DA release,[3],23%
"C1#Cc2ccc[n+](c2)CCCCCC[n+]2cccc(c2)C#CCCCCCC1.[I-].[I-] [N,N′-(1,6-hexanediyl)-3,3′-(1,9-decanediyn-1,10-diyl)-bis-pyridinium diiodide]",pKi,BBB choline transporter,4.47
same,Inhibition of [3H]Nicotine binding,[1],7%
same,Inhibition of [3H]MLA Binding,[2],2%
"C1#Cc2ccc[n+](c2)CCCCCCCC[n+]2cccc(c2)C#CCCCCCC1.[I-].[I-] [N,N′-(1,8-octanediyl)-3,3′-(1,9-decanediyn-1,10-diyl)-bis-pyridinium diiodide]",Inhibition of [3H]Nicotine binding,[1],9%
same,Inhibition of [3H]MLA Binding,[2],0%
"C1#Cc2ccc[n+](c2)CCCCCCCCC[n+]2cccc(c2)C#CCCCCCC1.[Br-].[Br-] [N,N′-(1,9-nonanediyl)-3,3′-(1,9-decanediyn-1,10-diyl)-bis-pyridinium dibromide]",pKi,BBB choline transporter,5.85
same,Inhibition of [3H]Nicotine binding,[1],0%
same,Inhibition of [3H]MLA Binding,[2],3%
"C1#Cc2ccc[n+](c2)CCCCCCCCCC[n+]2cccc(c2)C#CCCCCCC1 [N,N′-(1,10-decanediyl)-3,3′-(1,9-decanediyn-1,10-diyl)-bis-pyridinium diiodide]",pKi,BBB choline transporter,6.10
same,pKi,[1]; [4],6.26
same,pKi,[2]; [4],5.33
same,Inhibition of Nicotine-evoked [3H]DA release,[3],19%
"C1#Cc2ccc[n+](c2)CCCCCCCCCCC[n+]2cccc(c2)C#CCCCCCC1.[Br-].[Br-] [N,N′-(1,11-undecanediyl)-3,3′-(1,9-decanediyn-1,10-diyl)-bis-pyridinium dibromide]",pKi,BBB choline transporter,4.82
same,Inhibition of [3H]Nicotine binding,[1],11%
same,Inhibition of [3H]MLA Binding,[2],3%
